Data: patent US11046686B2, “Thiadiazole IRAK4 compounds” (Gilead Sciences, Inc., priority 2018, dated 2021)
Like-named read-outs stand apart in the source and are kept apart here.

What was measured:
IRAK4 enzyme = IRAK4 enzyme (Homo sapiens (Human), UniProt Q9NWZ3); test: IRAK4 Biochemical Assay (TR-FRET, STK1 KinEASE)
Outline: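 TR-FRET endpoint (KinEASE STK1): phosphopeptide detected with cryptate antibody and tracer after EDTA quench, ratio 665/615 nm, normalized to no-inhibitor wells as % inhibition. Reaction: 0.75 nM IRAK4, […] peptide, 500 μM ATP, pH 7.0 HEPES, 120 min room temperature, after 15 min compound preincubation with enzyme.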

TNFα = test: IRAK4 Monocyte TNFα Cell Based Assay; design: species or system human; conditions: Homo sapiens, Monocyte
Outline: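 TNFα release quantified by HTRF (cryptate/XL665 antibody pair, overnight at RT) after 1 h compound pre-incubation (0.1% DMSO) and 4 h LPS challenge at 50 pg/ml, 37 °C, 5,000 monocytes per well. Signal ratio normalised between unstimulated (0%) and stimulated (100%) controls.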

[1] = human monocytes, second part of Table 2, compounds 33-343, unit inferred, read-out: EC50 MONO TNF HTRF
[2] = compounds 1-32, read-out: IC50 HTRF
[3] = human monocytes, LPS stimulated, compounds 1-32, read-out: EC50 TNF

IRAK4 enzyme, sequence (Q9NWZ3 whole entry): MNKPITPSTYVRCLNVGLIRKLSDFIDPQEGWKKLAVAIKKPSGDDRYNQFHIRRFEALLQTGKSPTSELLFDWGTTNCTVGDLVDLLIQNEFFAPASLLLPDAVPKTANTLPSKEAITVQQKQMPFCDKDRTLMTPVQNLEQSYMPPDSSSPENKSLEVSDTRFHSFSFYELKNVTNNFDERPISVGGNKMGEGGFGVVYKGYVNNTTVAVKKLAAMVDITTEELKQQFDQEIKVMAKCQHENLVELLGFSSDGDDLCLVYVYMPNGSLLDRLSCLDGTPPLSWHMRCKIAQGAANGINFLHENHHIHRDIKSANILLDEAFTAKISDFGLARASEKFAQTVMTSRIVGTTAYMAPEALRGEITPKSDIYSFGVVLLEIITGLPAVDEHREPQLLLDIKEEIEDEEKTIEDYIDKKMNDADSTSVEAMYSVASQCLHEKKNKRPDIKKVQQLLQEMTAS

IC50 (IRAK4 enzyme; [2]) [nM] | EC50 (TNFα; [3]) [nM] | SMILES | IC50 (IRAK4 enzyme) [nM] | EC50 (TNFα; [1]) [nM] | EC50 (TNFα; read-out: EC50 MONO TNF HTRF) [nM]
 |  | CC(=O)N[C@@H]1CCN(c2nnc(-c3cnc(-c4ccc5cc(C#N)cnn45)cc3NC(C)C)s2)C[C@H]1O [Example 65, N-((3R,4R)-1-(5-(6-(3-cyanopyrrolo[1,2-b]pyridazin-7-yl)-4-(isopropylamino)pyridin-3-yl)-1,3,4-thiadiazol-2-yl)-3-hydroxypiperidin-4-yl)acetamide] | 0.3 | 10.6 | 
< 1 | 1170 | CC(C)Nc1cc(-c2ccc3cc(C#N)cnn23)ncc1-c1nnc(C(=O)NCCCN2CCCCC2)s1 [Example 11, 5-(6-(3-cyanopyrrolo[1,2-b]pyridazin-7-yl)-4-(isopropylamino)pyridin-3-yl)-N-(3-(piperidin-1-yl)propyl)-1,3,4-thiadiazole-2-carboxamide] |  |  | 
 |  | CC(=O)N1CC2(C1)CN(c1nnc(-c3cnc(-c4ccc5cc(C#N)cnn45)cc3NC(C)C)s1)C2 [Example 68, 7-(5-(5-(6-acetyl-2,6-diazaspiro[3.3]heptan-2-yl)-1,3,4-thiadiazol-2-yl)-4-(isopropylamino)pyridin-2-yl)pyrrolo[1,2-b]pyridazine-3-carbonitrile] | 0.45 | 37.9 | 
 |  | CC(C)Nc1cc(-c2ccc3cc(C#N)cnn23)ncc1-c1nnc(N2CC3CCC(C3)C2)s1 [Example 291, 7-(5-(5-(3-azabicyclo[3.2.1]octan-3-yl)-1,3,4-thiadiazol-2-yl)-4-(isopropylamino)pyridin-2-yl)pyrrolo[1,2-b]pyridazine-3-carbonitrile] | 1.78 | 59.3 | 
 |  | CC(=O)N1CCN(c2nnc(-c3cnc(-c4ccc5cc(C#N)cnn45)cc3NC(C)C)s2)C2CC21 (centres unmarked) [Compound 267, 7-(5-(5-(5-acetyl-2,5-diazabicyclo[4.1.0]heptan-2-yl)-1,3,4-thiadiazol-2-yl)-4-(isopropylamino)pyridin-2-yl)pyrrolo[1,2-b]pyridazine-3-carbonitrile] | 0.65 | 18.9 | 
 |  | CC(=O)N[C@@H]1CCN(C(=O)c2cnc(-c3cnc(-c4ccc5cc(C#N)cnn45)cc3NC(C)C)s2)C1 [Example 40, (R)-N-(1-(2-(6-(3-cyanopyrrolo[1,2-b]pyridazin-7-yl)-4-(isopropylamino)pyridin-3-yl)thiazole-5-carbonyl)pyrrolidin-3-yl)acetamide] | 3.09 | 87.6 | 
 |  | CC(C)Nc1cc(-c2ccc3cc(C#N)cnn23)ncc1-c1nnc(N2CC(O)(C(F)(F)F)C2)s1 [Example 297, 7-(5-(5-(3-hydroxy-3-(trifluoromethyl)azetidin-1-yl)-1,3,4-thiadiazol-2-yl)-4-(isopropylamino)pyridin-2-yl)pyrrolo[1,2-b]pyridazine-3-carbonitrile] | 0.67 | 10 | 
 |  | CC(=O)NC12CCC(CC1)N(c1nnc(-c3cnc(-c4ccc5cc(C#N)cnn45)cc3NC(C)C)s1)C2 [Example 66, N-(2-(5-(6-(3-cyanopyrrolo[1,2-b]pyridazin-7-yl)-4-(isopropylamino)pyridin-3-yl)-1,3,4-thiadiazol-2-yl)-2-azabicyclo[2.2.2]octan-4-yl)acetamide] | 0.42 | 13.6 | 
 |  | CC(=O)NC12CCC(c3nnc(-c4cnc(-c5ccc6cc(C#N)cnn56)cc4NC(C)C)s3)(CC1)OC2 [Example 83, N-(1-(5-(6-(3-cyanopyrrolo[1,2-b]pyridazin-7-yl)-4-(isopropylamino)pyridin-3-yl)-1,3,4-thiadiazol-2-yl)-2-oxabicyclo[2.2.2]octan-4-yl)acetamide] | 1.37 | 52.5 | 
< 1 | 79 | CC(C)Nc1cc(-c2ccc3cc(C#N)cnn23)ncc1-c1nnc(C(=O)NC[C@@H](F)C(C)(C)O)s1 [Example 14, (R)-5-(6-(3-cyanopyrrolo[1,2-b]pyridazin-7-yl)-4-(isopropylamino)pyridin-3-yl)-N-(2-fluoro-3-hydroxy-3-methylbutyl)-1,3,4-thiadiazole-2-carboxamide] |  |  | 
 |  | CC(=O)NC12CCC(c3nnc(-c4cnc(-c5ccc6cc(C#N)cnn56)cc4NC4CCOCC4)s3)(CC1)CC2 [Example 71, N-(4-(5-(6-(3-cyanopyrrolo[1,2-b]pyridazin-7-yl)-4-((tetrahydro-2H-pyran-4-yl)amino)pyridin-3-yl)-1,3,4-thiadiazol-2-yl)bicyclo[2.2.2]octan-1-yl)acetamide] | 0.58 | 3.2 | 
 |  | CC(=O)N1C[C@H]2C[C@@H]1CN2c1nnc(-c2cnc(-c3ccc4cc(C#N)cnn34)cc2NC(C)C)s1 [Example 303, 7-(5-(5-((1R,4R)-5-acetyl-2,5-diazabicyclo[2.2.1]heptan-2-yl)-1,3,4-thiadiazol-2-yl)-4-(isopropylamino)pyridin-2-yl)pyrrolo[1,2-b]pyridazine-3-carbonitrile] | 0.51 | 12.5 | 
 |  | CC(C)Nc1cc(-c2ccc3cc(C#N)cnn23)ncc1-c1nnc(C23CCC(O)(CC2)CC3)s1 [Example 89, 7-(5-(5-(4-hydroxybicyclo[2.2.2]octan-1-yl)-1,3,4-thiadiazol-2-yl)-4-(isopropylamino)pyridin-2-yl)pyrrolo[1,2-b]pyridazine-3-carbonitrile] | 1.01 | 11.3 | 
 |  | CC(=O)N[C@H]1CC[C@H](c2nnc(-c3cnc(-c4ccc5cc(C#N)cnn45)cc3N[C@H](C)C#N)s2)CC1 [Example 316, N-((1R,4r)-4-(5-(4-(((R)-1-cyanoethyl)amino)-6-(3-cyanopyrrolo[1,2-b]pyridazin-7-yl)pyridin-3-yl)-1,3,4-thiadiazol-2-yl)cyclohexyl)acetamide] | 0.59 | 5.3 | 
 |  | CC(=O)N[C@@H]1CCCN(c2nnc(-c3cnc(-c4ccc5cc(C#N)cnn45)cc3NC(C)C)s2)C1 [Example 296, (R)-N-(1-(5-(6-(3-cyanopyrrolo[1,2-b]pyridazin-7-yl)-4-(isopropylamino)pyridin-3-yl)-1,3,4-thiadiazol-2-yl)piperidin-3-yl)acetamide] | 1.02 | 1000 | 
 |  | CC(C)Nc1cc(-c2ccc3cc(C#N)cnn23)ncc1-c1nnc(N2C3CCC2COC3)s1 [Compound 236, 7-(5-(5-(3-oxa-8-azabicyclo[3.2.1]octan-8-yl)-1,3,4-thiadiazol-2-yl)-4-(isopropylamino)pyridin-2-yl)pyrrolo[1,2-b]pyridazine-3-carbonitrile] | 0.83 |  | 25.8
 |  | CC(=O)N[C@H]1C[C@@H]2C[C@H]1CN2c1nnc(-c2cnc(-c3ccc4cc(C#N)cnn34)cc2NC(C)C)s1 [Example 74, N-((1S,4S,5S)-2-(5-(6-(3-cyanopyrrolo[1,2-b]pyridazin-7-yl)-4-(isopropylamino)pyridin-3-yl)-1,3,4-thiadiazol-2-yl)-2-azabicyclo[2.2.1]heptan-5-yl)acetamide] | 0.54 | 11 | 
 |  | N#Cc1cnn2c(-c3cc(NC4CCOCC4)c(-c4nnc(N5CC6CC(C5)O6)s4)cn3)ccc2c1 [Example 177, 7-(5-(5-(6-oxa-3-azabicyclo[3.1.1]heptan-3-yl)-1,3,4-thiadiazol-2-yl)-4-((tetrahydro-2H-pyran-4-yl)amino)pyridin-2-yl)pyrrolo[1,2-b]pyridazine-3-carbonitrile] | 0.41 |  | 8.3
1 | 305 | CC(C)Nc1cc(-c2ccc3cc(C#N)cnn23)ncc1-c1nnc(CCN)s1 [Example 26, 7-(5-(5-(2-aminoethyl)-1,3,4-thiadiazol-2-yl)-4-(isopropylamino)pyridin-2-yl)pyrrolo[1,2-b]pyridazine-3-carbonitrile] |  |  | 
